Tested on: 299254-011-R-J1-PDC complex spheroid viability
Test: Anticancer human tumor 299254-011-R-J1-PDC patient-derived melanoma cell line growth inhibition [POLQ]
Conditions: for IC50: curve of first compound; for viability, T/C: stronger effect = lower value
Method: Multicellular complex tumor spheroid response to Polymerase (POL) inhibitors (novobiocin, ART-558, RP6685) in combination with a variety of drugs and investigational agents in selected tumor cell lines
The POL inhibitors (novobiocin, ART-558, and RP6685) were evaluated both individually and in combination with standard of care and investigational anticancer small molecules within a complex spheroid model of solid tumors. . Complex spheroids include a stromal component modeled by human endothelial cells (HUVEC) and fibroblasts modeled by human mesenchymal stem cells (MSCs). The concentration ranges selected for each drug and investigational agent were based upon clinically achievable concentrations if the clinical Cmax of the agent was known.
Compounds. The drugs and investigational agents: novobiocin (NSC847541), ART-558 (NSC835418), RP-6685 (NSC848927), peposertib (NSC802822), ceralasertib (NSC780249), elimusertib (NSC800525), camonsertib (NSC841442), AZD-1390 (NSC803789), olaparib (NSC753686), talazoparib (NSC767125), rucaparib (NSC756644), sotorasib (NSC818433), MRTX-1133 (NSC836407), SN-38 (NSC673596), topotecan (NSC609699), epotoside (NSC141540), doxorubicin (NSC123127), gemcitabine (NSC613327), 5-fluorouracil (NSC19893), paclitaxel (NSC125973), vemurafenib (NSC761431), MSA-2 (NSC828583), SN-011 (NSC837082), adavosertib (NSC754352), prexasertib (NSC758257), carboplatin (NSC241240) and oxaliplatin (NSC266046), were obtained from the National Cancer Institute (NCI) Developmental Therapeutics Program Chemical Repository (21). The FDA-approved anticancer drug set is available from the Developmental Therapeutics Program at https://dtp.cancer.gov/organization/dscb/obtaining/. […] The stock solutions were prepared in dimethyl sulfoxide (DMSO, Sigma-Aldrich, St. Louis, MO, cat. D2650), except for the platinum compounds which were prepared in saline (Quality Biological, Gaithersburg, MD, cat. 114-055-101), at 800-fold the tested concentration and stored at -70 degrees C prior to their use. All drugs and investigational agents were tested over a range starting from a high concentration at or near the clinical Cmax and decreasing in half-log increments. If the clinical Cmax for an agent had not been determined, the highest concentration tested was 10 microM, except for SN-38, which was tested at a high concentration of 1 microM.
Cell Culture. All cells were maintained in an incubator at 37 degrees C and 5% CO2 with 95% humidity. The PDC lines were cultured according to standard operating procedures established by the NCI PDMR (https://pdmr.cancer.gov). Table 3 of the manuscript, lists the cell lines along with the number of the three cell types plated to form the mct-spheroids and media for tumor cell growth. After thawing, all PDC lines, except 997537-175-T-J1-PDC and 415267-285-R-J2-PDC, were cultured in Matrigel-coated flasks prepared with a working solution of 1X Ham's F-12 nutrient mix, without supplementation (Thermo Fisher Scientific, cat. 11765054), 100 U/mL penicillin-streptomycin (Thermo Fisher Scientific, cat. 15140122), and 2.5% Matrigel (Corning Inc., Corning, NY, cat. 354248) for the first three passages. The two PDC lines 997537-175-T-J1-PDC and 415267-285-R-J2-PDC were cultured on uncoated flasks. The 857933-349-R-J2-PDC line was cultured in 6C/Colon 1B media containing advanced DMEM/F-12 (Thermo Fisher Scientific, cat. 12634028), 10 mM HEPES (Thermo Fisher Scientific, cat. 15630080), 1X GlutaMAX supplement (Thermo Fisher Scientific, cat. 35050061), 0.1 mg/mL primocin (InvivoGen, San Diego, CA, cat. ant-pm-2), 10% defined fetal bovine serum, heat inactivated (HyClone Laboratories Inc., Logan, UT, cat. SH30070.03HI), 50% L-WRN conditioned media (ATCC, cat. CRL-3276), 1.25 mM N-Acetyl-L-cysteine (Sigma-Aldrich, cat. A9165), 10 mM nicotinamide (Sigma-Aldrich, cat. N0636), 1X B-27 supplement (Thermo Fisher Scientific, cat. 17504044), 1X N-2 supplement (Thermo Fisher Scientific, cat. […]

[1] = second compound 0.0316 µM, first compound 0.0316 µM
[2] = second compound 0.0316 µM, first compound 0.1 µM
[3] = second compound 0.0316 µM, first compound 0.316 µM
[4] = second compound 0.0316 µM, first compound 1 µM
[5] = second compound 0.0316 µM, first compound 3.16 µM
[6] = second compound 0.0316 µM, first compound 10 µM
[7] = second compound 0.1 µM, first compound 0.0316 µM
[8] = second compound 0.1 µM, first compound 0.1 µM
[9] = second compound 0.1 µM, first compound 0.316 µM
[10] = second compound 0.1 µM, first compound 1 µM
[11] = second compound 0.1 µM, first compound 3.16 µM
[12] = second compound 0.1 µM, first compound 10 µM
[13] = second compound 0.316 µM, first compound 0.0316 µM
[14] = second compound 0.316 µM, first compound 0.1 µM
[15] = second compound 0.316 µM, first compound 0.316 µM
[16] = second compound 0.316 µM, first compound 1 µM
[17] = second compound 0.316 µM, first compound 3.16 µM
[18] = second compound 0.316 µM, first compound 10 µM
[19] = second compound 1 µM, first compound 0.0316 µM
[20] = second compound 1 µM, first compound 0.1 µM
[21] = second compound 1 µM, first compound 0.316 µM
[22] = second compound 1 µM, first compound 1 µM
[23] = second compound 1 µM, first compound 3.16 µM
[24] = second compound 1 µM, first compound 10 µM
[25] = second compound 3.16 µM, first compound 0.0316 µM
[26] = second compound 3.16 µM, first compound 0.1 µM
[27] = second compound 3.16 µM, first compound 0.316 µM
[28] = second compound 3.16 µM, first compound 1 µM
[29] = second compound 3.16 µM, first compound 3.16 µM
[30] = second compound 3.16 µM, first compound 10 µM
[31] = second compound 10 µM, first compound 0.0316 µM
[32] = second compound 10 µM, first compound 0.1 µM
[33] = second compound 10 µM, first compound 0.316 µM
[34] = second compound 10 µM, first compound 1 µM
[35] = second compound 10 µM, first compound 3.16 µM
[36] = second compound 10 µM, first compound 10 µM
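Further: spheroids exposed to drugs for one week before measurement.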
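Wherever viability, T/C is given: percent viability relative to DMSO vehicle control taken as 100%.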

CC1COCCN1c1cc(-c2ccnn2C)c2ccnc(-c3ccn[nH]3)c2n1 (stereo unspecified) + Nc1ccc(C#CCN(C(=O)Cc2ncc(C(F)(F)F)cc2C(F)(F)F)c2ccc(F)cc2)nn1
IC50 (second compound 0.0316 µM): 0.311 µM | IC50 (second compound 0.1 µM): 0.226 µM | IC50 (second compound 0.316 µM): 0.295 µM | IC50 (second compound 1 µM): 0.264 µM | IC50 (second compound 3.16 µM): 0.179 µM | IC50 (second compound 10 µM): 0.16 µM | viability, T/C [1]: 87.8% | viability, T/C [2]: 80.3% | viability, T/C [3]: 43.7% | viability, T/C [4]: 36.3% | viability, T/C [5]: 22.3% | viability, T/C [6]: 18.7% | viability, T/C [7]: 102% | viability, T/C [8]: 70.9% | viability, T/C [9]: 41.9% | viability, T/C [10]: 27.8% | viability, T/C [11]: 23.2% | viability, T/C [12]: 25.4% | viability, T/C [13]: 102% | viability, T/C [14]: 70.5% | viability, T/C [15]: 50.4% | viability, T/C [16]: 31.2% | viability, T/C [17]: 28.1% | viability, T/C [18]: 19.5% | viability, T/C [19]: 88.7% | viability, T/C [20]: 68.5% | viability, T/C [21]: 43.8% | viability, T/C [22]: 33.8% | viability, T/C [23]: 31.2% | viability, T/C [24]: 19.6% | viability, T/C [25]: 84.7% | viability, T/C [26]: 62.6% | viability, T/C [27]: 36.3% | viability, T/C [28]: 32.4% | viability, T/C [29]: 19.9% | viability, T/C [30]: 25.4% | viability, T/C [31]: 82.5% | viability, T/C [32]: 54.6% | viability, T/C [33]: 42.6% | viability, T/C [34]: 33.2% | viability, T/C [35]: 20.7% | viability, T/C [36]: 25.2%

CNCc1ccc(-c2[nH]c3cc(F)cc4c3c2CCNC4=O)cc1 + Nc1ccc(C#CCN(C(=O)Cc2ncc(C(F)(F)F)cc2C(F)(F)F)c2ccc(F)cc2)nn1
IC50 (second compound 0.0316 µM): > 10 µM | IC50 (second compound 0.1 µM): > 10 µM | IC50 (second compound 0.316 µM): > 10 µM | IC50 (second compound 1 µM): > 10 µM | IC50 (second compound 3.16 µM): > 10 µM | IC50 (second compound 10 µM): > 10 µM | viability, T/C [1]: 108% | viability, T/C [2]: 107% | viability, T/C [3]: 109% | viability, T/C [4]: 122% | viability, T/C [5]: 110% | viability, T/C [6]: 103% | viability, T/C [7]: 115% | viability, T/C [8]: 117% | viability, T/C [9]: 99.8% | viability, T/C [10]: 105% | viability, T/C [11]: 109% | viability, T/C [12]: 109% | viability, T/C [13]: 106% | viability, T/C [14]: 107% | viability, T/C [15]: 96.4% | viability, T/C [16]: 95.7% | viability, T/C [17]: 119% | viability, T/C [18]: 129% | viability, T/C [19]: 113% | viability, T/C [20]: 111% | viability, T/C [21]: 94.4% | viability, T/C [22]: 102% | viability, T/C [23]: 129% | viability, T/C [24]: 114% | viability, T/C [25]: 106% | viability, T/C [26]: 105% | viability, T/C [27]: 110% | viability, T/C [28]: 95.9% | viability, T/C [29]: 124% | viability, T/C [30]: 124% | viability, T/C [31]: 107% | viability, T/C [32]: 96.2% | viability, T/C [33]: 93.1% | viability, T/C [34]: 103% | viability, T/C [35]: 102% | viability, T/C [36]: 94.1%

O=C(c1cc(Cc2n[nH]c(=O)c3ccccc23)ccc1F)N1CCN(C(=O)C2CC2)CC1 + Nc1ccc(C#CCN(C(=O)Cc2ncc(C(F)(F)F)cc2C(F)(F)F)c2ccc(F)cc2)nn1
IC50 (second compound 0.0316 µM): > 10 µM | IC50 (second compound 0.1 µM): > 10 µM | IC50 (second compound 0.316 µM): > 10 µM | IC50 (second compound 1 µM): > 10 µM | IC50 (second compound 3.16 µM): > 10 µM | IC50 (second compound 10 µM): > 10 µM | viability, T/C [1]: 120% | viability, T/C [2]: 96.6% | viability, T/C [3]: 92.4% | viability, T/C [4]: 91.7% | viability, T/C [5]: 107% | viability, T/C [6]: 95.6% | viability, T/C [7]: 94% | viability, T/C [8]: 105% | viability, T/C [9]: 97.2% | viability, T/C [10]: 95.3% | viability, T/C [11]: 112% | viability, T/C [12]: 88% | viability, T/C [13]: 111% | viability, T/C [14]: 122% | viability, T/C [15]: 106% | viability, T/C [16]: 105% | viability, T/C [17]: 97.2% | viability, T/C [18]: 84.6% | viability, T/C [19]: 105% | viability, T/C [20]: 95.4% | viability, T/C [21]: 100% | viability, T/C [22]: 110% | viability, T/C [23]: 109% | viability, T/C [24]: 85.3% | viability, T/C [25]: 103% | viability, T/C [26]: 96.7% | viability, T/C [27]: 94.8% | viability, T/C [28]: 113% | viability, T/C [29]: 93.8% | viability, T/C [30]: 71% | viability, T/C [31]: 89.1% | viability, T/C [32]: 98.5% | viability, T/C [33]: 113% | viability, T/C [34]: 88.8% | viability, T/C [35]: 99.4% | viability, T/C [36]: 63.5%

Reference: PubChem BioAssay AID1963849 (Molecular Pharmacology Branch, DTP, NCI, 2024)
